Data from ChEMBL document CHEMBL1121638, “Synthesis and preliminary pharmacological evaluation of asymmetric chloroquine analogues” (1981).
Values joined by “and” are separate entries in the source; they are usually repeats but may differ in a detail not shown here. Identical values can stand only once. Active and inactive are the calls of the source. No cut-off for these calls is given here.

Columns and labels:
Assay type in all cases: functional
Mus musculus [1] = species on record: Mus musculus; experiment: Compound was evaluated for the percentage inhibition of the control PGF2-alpha response at a concentration of 3 x 10 e-4 M in isolated mouse ileum
Mus musculus [2] = species on record: Mus musculus; experiment: Compound was evaluated for the percentage inhibition of PGF2-alpha-induced contractions at a concentration of 10 e-5 M in isolated mouse ileum
Mus musculus [3] = species on record: Mus musculus; experiment: Compound was evaluated for the percentage inhibition of PGF2-alpha-induced contractions at a concentration of 10 e-5 M in isolated mouse ileum; NI=No inhibition
Mus musculus [4] = species on record: Mus musculus; experiment: Antispasmodic activity evaluated as percentage reduction in the contractile response of the estrous uterus in mouse

With `CCN(CC)CCC[C@@H](CCl)Nc1ccnc2cc(Cl)ccc12.Cl` the Inhibition (Mus musculus [1]) was 55% and 32% and the inhibition at 10 µM (Mus musculus [2]) was 28%.
In the case of `CCN(CC)CCC[C@H](CCl)Nc1ccnc2cc(Cl)ccc12`, the inhibition at 300 µM (Mus musculus [1]; Mus musculus, Ileum) is reported as 17% and the inhibition (Mus musculus [3]) is reported as “inactive”.
`CCN(CC)CCC[C@H](C)Nc1ccnc2cc(Cl)ccc12` was tested, and the Reduction (Mus musculus [4]) was 50%.
